Source: US9820972B2, “Antiviral compounds highly effective as HCV-NS5A inhibitor” (priority 2013, dated 2017)
pEC50: −log10 of the molar value.

Test system: GT-1a of NS5A Replicon
Assay: HCV double reporter gene (Renilla luciferase) replicon assay, GT-1a
Assay type: cell-based, Hepatitis C virus (HCV)
Conditions: Hepatitis C virus, GT1A, GT-1a replicon; class symbols; read-out: EC50 For GT-1a of NS5A Replicon
Description: Antiviral Assay for Inhibition Activity (EC50):
The study is completed by a new constructed double reporter genes replicon assay system, the capacity of viral replicon in infected cell is determined by detecting the reporter gene Renilla luciferase. The relationship of reporter genes, HCV RNA replicon and viral proteins is well linear. 8 gradient concentrations for 2-fold dilution, 3 wells, 3 times repetition and 1 or 2 control drugs are set to finally determine EC50 of compound.
THF was distilled from sodium metal and benzophenone. DCM, pentane and hexane were distilled form calcium hydride. Special raw material and intermediate in the invention were ordered by contract synthesis from Zannan SciTech Co., Let in China, others reagents were purchased from Shanghai reagent company, Aldrich, Acros etc. As intermediates or products during the synthesis is not required for the reaction and other tests the next step, the synthesis is repeated until a sufficient number of times. The invention of the prepared compounds of […] (HCV NS5A) inhibitory activity test was performed by CRO service units such as WuXi AppTec etc.

## COC(=O)N[C@H](C(=O)N1C[C@H](OC(=O)N2Cc3ccc4c(c3C2)OCO4)CC1c1ncc(-c2ccc(-c3ccc(-c4c[nH]c([C@@H]5CCCN5C(=O)[C@@H](NC(=O)OC)C(C)C)n4)cc3)cc2)[nH]1)C(C)C (stereo partly shown) [Compound 6a]
  pEC50: 9.00 to 12.00

## COC(=O)N[C@H](C(=O)N1CCCC1c1nc(-c2ccc(-c3ccc(-c4c[nH]c([C@@H]5CCCN5C(=O)C5(NC(=O)OC)CCCCC5)n4)cc3)cc2)c[nH]1)C(C)C (stereo partly shown) [Compound 6aa]
  pEC50: 9.00 to 12.00

## COC(=O)N[C@H](C(=O)N1CCCC1c1nc(-c2ccc(-c3ccc(-c4c[nH]c([C@@H]5CCCCN5C(=O)[C@@H](NC(=O)OC)C(C)C)n4)cc3)cc2)c[nH]1)C(C)C (stereo partly shown) [Compound 6ab]
  pEC50: 9.00 to 12.00

## COC(=O)N[C@H](C(=O)N1C[C@@H](OC(=O)N2Cc3cc4c(cc3C2)OCO4)CC1c1nc(-c2ccc(-c3ccc(-c4c[nH]c([C@@H]5CCCCN5C(=O)[C@@H](NC(=O)OC)C(C)C)n4)cc3)cc2)c[nH]1)C(C)C (stereo partly shown) [Compound 6ac]
  pEC50: 9.00 to 12.00

## COC(=O)N[C@H](C(=O)N1C[C@@H](OC(=O)N2Cc3ccc4c(c3C2)OCO4)CC1c1nc(-c2ccc(-c3ccc(-c4c[nH]c([C@@H]5CCCCN5C(=O)[C@@H](NC(=O)OC)C(C)C)n4)cc3)cc2)c[nH]1)C(C)C (stereo partly shown) [Compound 6ad]
  pEC50: 9.00 to 12.00

## COC(=O)N[C@H](C(=O)N1CN(C(=O)N2Cc3ccc4c(c3C2)OCO4)CC1c1nc(-c2ccc(-c3ccc(-c4c[nH]c([C@@H]5CCCN5C(=O)[C@@H](NC(=O)OC)C(C)C)n4)cc3)cc2)c[nH]1)C(C)C (stereo partly shown) [Compound 6ae]
  pEC50: 9.00 to 12.00

## COC(=O)N[C@H](C(=O)N1CN(C(=O)N2Cc3cc4c(cc3C2)OCO4)CC1c1nc(-c2ccc(-c3ccc(-c4c[nH]c([C@@H]5CCCN5C(=O)[C@@H](NC(=O)OC)C(C)C)n4)cc3)cc2)c[nH]1)C(C)C (stereo partly shown) [Compound 6af]
  pEC50: 9.00 to 12.00

## COC(=O)N[C@H](C(=O)N1CCCC1c1nc(-c2ccc(-c3ccc(-c4c[nH]c([C@@H]5COCCN5C(=O)[C@@H](NC(=O)OC)C(C)C)n4)cc3)cc2)c[nH]1)C(C)C (stereo partly shown) [Compound 6ag]
  pEC50: 9.00 to 12.00

## COC(=O)N[C@H](C(=O)N1C[C@@H](OC(=O)N2Cc3cc4c(cc3C2)OCO4)CC1c1nc(-c2ccc(-c3ccc(-c4c[nH]c([C@@H]5COCCN5C(=O)[C@@H](NC(=O)OC)C(C)C)n4)cc3)cc2)c[nH]1)C(C)C (stereo partly shown) [Compound 6ah]
  pEC50: 9.00 to 12.00

## COC(=O)N[C@H](C(=O)N1C[C@@H](OC(=O)N2Cc3ccc4c(c3C2)OCO4)CC1c1nc(-c2ccc(-c3ccc(-c4c[nH]c([C@@H]5COCCN5C(=O)[C@@H](NC(=O)OC)C(C)C)n4)cc3)cc2)c[nH]1)C(C)C (stereo partly shown) [Compound 6ai]
  pEC50: 9.00 to 12.00

## COC(=O)N[C@H](C(=O)N1CCCCC1c1nc(-c2ccc(-c3ccc(-c4c[nH]c([C@@H]5COCCN5C(=O)[C@@H](NC(=O)OC)C(C)C)n4)cc3)cc2)c[nH]1)C(C)C (stereo partly shown) [Compound 6aj]
  pEC50: 9.00 to 12.00

## COC(=O)N[C@H](C(=O)N1CC(OC(=O)N2Cc3cc4c(cc3C2)OCO4)CC1c1nc(-c2ccc(-c3ccc(-c4c[nH]c([C@@H]5CC6(CC6)CN5C(=O)[C@@H](NC(=O)OC)C(C)C)n4)cc3)cc2)c[nH]1)C(C)C (stereo partly shown) [Compound 6ak]
  pEC50: 9.00 to 12.00

## COC(=O)N[C@H](C(=O)N1CN(C(=O)N2Cc3cc4c(cc3C2)OCO4)CC1c1nc(-c2ccc(-c3ccc(-c4c[nH]c([C@@H]5CC6(CC6)CN5C(=O)[C@@H](NC(=O)OC)C(C)C)n4)cc3)cc2)c[nH]1)C(C)C (stereo partly shown) [Compound 6am]
  pEC50: 9.00 to 12.00

## COC(=O)N[C@H](C(=O)N1CC(OC(=O)N2Cc3ccc4c(c3C2)OCO4)CC1c1nc(-c2ccc(-c3ccc(-c4c[nH]c([C@@H]5CC6(CC6)CN5C(=O)[C@@H](NC(=O)OC)C(C)C)n4)cc3)cc2)c[nH]1)C(C)C (stereo partly shown) [Compound 6an]
  pEC50: 9.00 to 12.00

## COC(=O)N[C@H](C(=O)N1CN(C(=O)N2Cc3ccc4c(c3C2)OCO4)CC1c1nc(-c2ccc(-c3ccc(-c4c[nH]c([C@@H]5CC6(CC6)CN5C(=O)[C@@H](NC(=O)OC)C(C)C)n4)cc3)cc2)c[nH]1)C(C)C (stereo partly shown) [Compound 6ap]
  pEC50: 9.00 to 12.00

## COC(=O)N[C@H](C(=O)N1CN(C(=O)N2Cc3ccccc3C2)CC1c1nc(-c2ccc(-c3ccc(-c4c[nH]c([C@@H]5CCCN5C(=O)[C@@H](NC(=O)OC)C(C)C)n4)cc3)cc2)c[nH]1)C(C)C (stereo partly shown) [Compound 6aq]
  pEC50: 9.00 to 12.00

## COC(=O)N[C@H](C(=O)N1CN(C(=O)N2Cc3cccc(F)c3C2)CC1c1nc(-c2ccc(-c3ccc(-c4c[nH]c([C@@H]5CCCN5C(=O)[C@@H](NC(=O)OC)C(C)C)n4)cc3)cc2)c[nH]1)C(C)C (stereo partly shown) [Compound 6ar]
  pEC50: 9.00 to 12.00

## COC(=O)N[C@H](C(=O)N1CN(C(=O)N2Cc3ccc(F)cc3C2)CC1c1nc(-c2ccc(-c3ccc(-c4c[nH]c([C@@H]5CCCN5C(=O)[C@@H](NC(=O)OC)C(C)C)n4)cc3)cc2)c[nH]1)C(C)C (stereo partly shown) [Compound 6as]
  pEC50: 9.00 to 12.00

## COC(=O)N[C@H](C(=O)N1CN(C(=O)N2Cc3cccc(Cl)c3C2)CC1c1nc(-c2ccc(-c3ccc(-c4c[nH]c([C@@H]5CCCN5C(=O)[C@@H](NC(=O)OC)C(C)C)n4)cc3)cc2)c[nH]1)C(C)C (stereo partly shown) [Compound 6at]
  pEC50: 9.00 to 12.00

## COC(=O)N[C@H](C(=O)N1CN(C(=O)N2Cc3ccc(Cl)cc3C2)CC1c1nc(-c2ccc(-c3ccc(-c4c[nH]c([C@@H]5CCCN5C(=O)[C@@H](NC(=O)OC)C(C)C)n4)cc3)cc2)c[nH]1)C(C)C (stereo partly shown) [Compound 6au]
  pEC50: 9.00 to 12.00

## COC(=O)N[C@H](C(=O)N1CN(C(=O)N2Cc3ccc(OC)cc3C2)CC1c1nc(-c2ccc(-c3ccc(-c4c[nH]c([C@@H]5CCCN5C(=O)[C@@H](NC(=O)OC)C(C)C)n4)cc3)cc2)c[nH]1)C(C)C (stereo partly shown) [Compound 6av]
  pEC50: 9.00 to 12.00

## COC(=O)N[C@H](C(=O)N1CN(C(=O)N2Cc3cccc(OC)c3C2)CC1c1nc(-c2ccc(-c3ccc(-c4c[nH]c([C@@H]5CCCN5C(=O)[C@@H](NC(=O)OC)C(C)C)n4)cc3)cc2)c[nH]1)C(C)C (stereo partly shown) [Compound 6aw]
  pEC50: 9.00 to 12.00

## COC(=O)N[C@H](C(=O)N1CN(C(=O)N2Cc3cc(OC)c(OC)cc3C2)CC1c1nc(-c2ccc(-c3ccc(-c4c[nH]c([C@@H]5CCCN5C(=O)[C@@H](NC(=O)OC)C(C)C)n4)cc3)cc2)c[nH]1)C(C)C (stereo partly shown) [Compound 6ax]
  pEC50: 9.00 to 12.00

## COC(=O)NC(C(=O)N1CCC[C@H]1c1nc(-c2ccc(-c3ccc(-c4c[nH]c(C5CN(C(=O)N6Cc7ccc8c(c7C6)OCO8)CN5C(=O)[C@@H](NC(=O)OC)C(C)C)n4)cc3)cc2)c[nH]1)c1ccccc1 (stereo partly shown) [Compound 6ay]
  pEC50: 9.00 to 12.00

## COC(=O)N[C@H](C(=O)N1CC(OC(=O)N2Cc3cc4c(cc3C2)OCO4)CC1c1nc(-c2ccc3c(c2)Cc2cc(-c4c[nH]c([C@@H]5CCCN5C(=O)[C@@H](NC(=O)OC)C(C)C)n4)ccc2-3)c[nH]1)C(C)C (stereo partly shown) [Compound 6az]
  pEC50: 9.00 to 12.00

## CC(C)[C@H](NC(=O)OC(C)(C)C)C(=O)N1CCC[C@H]1c1nc(-c2ccc(-c3ccc(-c4cnc([C@@H]5C[C@@H](OC(=O)N6Cc7ccc8c(c7C6)OCO8)CN5C(=O)[C@@H](NC(=O)OC(C)(C)C)C(C)C)[nH]4)cc3)cc2)c[nH]1 [Compound 6b]
  pEC50: < 7.30

## CC(C)[C@H](NC(=O)OC1CCCC1)C(=O)N1CC=CC1c1ncc(-c2ccc(-c3ccc(-c4c[nH]c([C@@H]5C=CCN5C(=O)[C@@H](NC(=O)OC5CCCC5)C(C)C)n4)cc3)cc2)[nH]1 (stereo partly shown) [Compound 6bf]
  pEC50: < 7.30

## COC(=O)N[C@H](C(=O)N1CC=CC1c1nc(-c2ccc(-c3ccc(-c4c[nH]c([C@@H]5CCCN5C(=O)C5(NC(=O)OC)CC5)n4)cc3)cc2)c[nH]1)C(C)C (stereo partly shown) [Compound 6bh]
  pEC50: 9.00 to 12.00

## COC(=O)N[C@H](C(=O)N1CC=CC1c1nc(-c2ccc(-c3ccc(-c4c[nH]c([C@@H]5CCCN5C(=O)C5(NC(=O)OC)CCCC5)n4)cc3)cc2)c[nH]1)C(C)C (stereo partly shown) [Compound 6bi]
  pEC50: 9.00 to 12.00

## COC(=O)N[C@H](C(=O)N1CC=CC1c1nc(-c2ccc(-c3ccc(-c4c[nH]c([C@@H]5CCCN5C(=O)C5(NC(=O)OC)CCCCC5)n4)cc3)cc2)c[nH]1)C(C)C (stereo partly shown) [Compound 6bj]
  pEC50: 9.00 to 12.00

## COC(=O)N[C@H](C(=O)N1CC=CC1c1nc(-c2ccc(-c3ccc(-c4c[nH]c([C@@H]5CCCCN5C(=O)[C@@H](NC(=O)OC)C(C)C)n4)cc3)cc2)c[nH]1)C(C)C (stereo partly shown) [Compound 6bk]
  pEC50: 9.00 to 12.00

## COC(=O)N[C@H](C(=O)N1CC=CC1c1nc(-c2ccc(-c3ccc(-c4c[nH]c([C@@H]5COCCN5C(=O)[C@@H](NC(=O)OC)C(C)C)n4)cc3)cc2)c[nH]1)C(C)C (stereo partly shown) [Compound 6bm]
  pEC50: 9.00 to 12.00

## COC(=O)N[C@H](C(=O)N1CC(OC(=O)N2Cc3cc4c(cc3C2)OCO4)CC1c1nc(-c2ccc3c(c2)oc2cc(-c4c[nH]c([C@@H]5CCCN5C(=O)[C@@H](NC(=O)OC)C(C)C)n4)ccc23)c[nH]1)C(C)C (stereo partly shown) [Compound 6bn]
  pEC50: 9.00 to 12.00

## COC(=O)N[C@H](C(=O)N1CC(OC(=O)N2Cc3cc4c(cc3C2)OCO4)CC1c1nc(-c2ccc3c(c2)C(F)(F)c2cc(-c4c[nH]c([C@@H]5CCCN5C(=O)[C@@H](NC(=O)OC)C(C)C)n4)ccc2-3)c[nH]1)C(C)C (stereo partly shown) [Compound 6bp]
  pEC50: 9.00 to 12.00

## COC(=O)N[C@H](C(=O)N1CCCC1c1nc2cc(-c3ccc4c(c3)C(F)(F)c3cc(-c5c[nH]c([C@@H]6C=CCN6C(=O)[C@@H](NC(=O)OC)C(C)C)n5)ccc3-4)ccc2[nH]1)C(C)C (stereo partly shown) [Compound 6bq]
  pEC50: 9.00 to 12.00

## COC(=O)N[C@H](C(=O)N1CC(OC(=O)N2Cc3cc4c(cc3C2)OCO4)CC1c1nc2cc(-c3ccc4c(c3)C(F)(F)c3cc(-c5c[nH]c([C@@H]6CCCN6C(=O)[C@@H](NC(=O)OC)C(C)C)n5)ccc3-4)ccc2[nH]1)C(C)C (stereo partly shown) [Compound 6br]
  pEC50: 9.00 to 12.00

## COC(=O)N[C@H](C(=O)N1CCCC1c1nc2cc(-c3ccc4c(c3)C(F)(F)c3cc(-c5c[nH]c([C@@H]6CN(C(=O)N7Cc8cc9c(cc8C7)OCO9)CN6C(=O)[C@@H](NC(=O)OC)C(C)C)n5)ccc3-4)ccc2[nH]1)C(C)C (stereo partly shown) [Compound 6bs]
  pEC50: < 7.30
